For one assay, the target named is T1, CDK2/CycE (Homo sapiens, UniProt P24941).
T1 construct: GST; purchased ProQinase GmbH (Freiburg, Germany); host or cells: insect cells (Sf9)
Put plainly: CDK2/CycE kinase assay (Method 2a). The class given is biochemical. The note with it: 10 μM ATP. From the text: 2a. CDK2/CycE Kinase Assay:
CDK2/CycE-inhibitory activity of compounds of the present invention was quantified employing the CDK2/CycE TR-FRET assay as described in the following paragraphs:
Recombinant fusion proteins of GST and human CDK2 and of GST and human CycE, expressed in insect cells (Sf9) and purified by Glutathion-Sepharose affinity chromatography, were purchased from ProQinase GmbH (Freiburg, Germany). As substrate for the kinase reaction biotinylated peptide biotin-Ttds-YISPLKSPYKISEG (C-terminus in amid form) was used which can be purchased e.g. form the company JERINI Peptide Technologies (Berlin, Germany).
For the assay 50 nl of a 100 fold concentrated solution of the test compound in DMSO was pipetted into a black low volume 384 well microtiter plate (Greiner Bio-One, Frickenhausen, Germany), 2 μl of a solution of CDK2/CycE in aqueous assay buffer [50 mM Tris/HCl pH 8.0, 10 mM MgCl2, 1.0 mM dithiothreitol, 0.1 mM sodium ortho-vanadate, 0.01% (v/v) Nonidet-P40 (Sigma)] were added and the mixture was incubated for 15 min at 22° C. to allow pre-binding of the test compounds to the enzyme before the start of the kinase reaction. Then the kinase reaction was started by the addition of 3 μl of a solution of adenosine-tri-phosphate (ATP, 16.7 μM=>final conc. in the 5 μl assay volume is 10 μM) and substrate (1.25 μM=>final conc. in the 5 μl assay volume is 0.75 μM) in assay buffer and the resulting mixture was incubated for a reaction time of 25 min at 22° C. The concentration of CDK2/CycE was adjusted depending of the activity of the enzyme lot and was chosen appropriate to have the assay in the linear range, typical concentrations were in the range of 130 ng/mL. The reaction was stopped by the addition of 5 μl of a solution of TR-FRET detection reagents (0.2 μM streptavidine-XL665 [Cisbio Bioassays, Codolet, France] and 1 nM anti-RB(pSer807/pSer811)-antibody from BD Pharmingen [#558389] and 1.2 nM LANCE EU-W1024 labeled anti-mouse IgG antibody [Perkin-Elmer, product no. AD0077]) in an aqueous EDTA-solution (100 mM EDTA, 0.2% (w/v) bovine serum albumin in 100 mM HEPES/NaOH pH 7.0).
The resulting mixture was incubated 1 h at 22° C. to allow the formation of complex between the phosphorylated biotinylated peptide and the detection reagents. Subsequently the amount of phosphorylated substrate was evaluated by measurement of the resonance energy transfer from the Eu-chelate to the streptavidine-XL. Therefore, the fluorescence emissions at 620 nm and 665 nm after excitation at 350 nm was measured in a TR-FRET reader, e.g. a Rubystar (BMG Labtechnologies, Offenburg, Germany) or a Viewlux (Perkin-Elmer). The ratio of the emissions at 665 nm and at […] was taken as the measure for the amount of phosphorylated substrate. […]

A further assay concerns HeLa-MaTu-ADR cells. As to the kind of experiment: Proliferation assay, HeLa-MaTu-ADR. The class given is cell-based. The note with it: Homo sapiens, 96 h; 4 days, crystal violet; read-out: Inhibition of HeLa-MaTu-ADR cell proliferation IC50. How it is done:
(§1) Cultivated tumour cells (HeLa, human cervical tumour cells, ATCC CCL-2; NCI-H460, human non-small cell lung carcinoma cells, ATCC HTB-177; A2780, human ovarian carcinoma cells, ECACC #93112519; DU 145, hormone-independent human prostate carcinoma cells, ATCC HTB-81; HeLa-MaTu-ADR, multidrug-resistant human cervical carcinoma cells, EPO-GmbH Berlin; Caco-2, human colorectal carcinoma cells, ATCC HTB-37; B16F10, mouse melanoma cells, ATCC CRL-6475) were plated at a density of 5,000 cells/well (DU145, HeLa-MaTu-ADR), 3,000 cells/well (NCI-H460, HeLa), 2,500 cells/well (A2780), 1,500 cells/well (Caco-2), or 1,000 cells/well (B16F10) in a 96-well multititer plate in 200 μL of their respective growth medium supplemented 10% fetal calf serum. After 24 hours, the cells of one plate (zero-point plate) were stained with crystal violet (see below), while the medium of the other plates was replaced by fresh culture medium (200 μl), to which the test substances were added in various concentrations (0 μM, as well as in the range of 0.001-10 μM; the final concentration of the solvent dimethyl sulfoxide was 0.5%). The cells were incubated for 4 days in the presence of test substances. Cell proliferation was determined by staining the cells with crystal violet: the cells were fixed by adding 20 μl/measuring point of an 11% glutaric aldehyde solution for 15 minutes at room temperature. After three washing cycles of the fixed cells with water, the plates were dried at room temperature. The cells were stained by adding 100 μl/measuring point of a 0.1% crystal violet solution (pH 3.0). After three washing cycles of the stained cells with water, the plates were dried at room temperature. The dye was dissolved by adding 100 μl/measuring point of a 10% acetic acid solution. The extinction was determined by photometry at a wavelength of 595 nm. The change of cell number, in percent, was calculated by normalization of the measured values to the extinction values of the zero-point plate (=0%) and the extinction of the untreated (0 μm) cells (=100%). […]

In a further assay the test system is NCI-H460 cells. As to the kind of experiment: Proliferation assay, NCI-H460. It counts as cell-based. To be noted: Homo sapiens, NCI-H460, 96 h; 4 days, crystal violet; read-out: Inhibition of NCI-H460 cell proliferation IC50. As to the method:
as §1

The test system of the next assay is DU145 cells. Put plainly: Proliferation assay, DU145. The class given is cell-based. To be noted: Homo sapiens, DU-145, 96 h; 4 days, crystal violet; read-out: Inhibition of DU145 cell proliferation IC50. How it is done:
as §1

A further assay concerns Caco-2 cells. Put plainly: Proliferation assay, Caco-2. It counts as cell-based. To be noted: Homo sapiens, Caco-2, 96 h; 4 days, crystal violet; read-out: Inhibition of Caco-2 cell proliferation IC50. As to the method:
as §1

A further assay concerns B16F10 cells. As to the kind of experiment: Proliferation assay, B16F10. The class given is cell-based. To be noted: Mus musculus, B16-F10, 96 h; 4 days, crystal violet; read-out: Inhibition of B16F10 cell proliferation IC50. How it is done: as §1
The test system of a further assay is A2780 cells. As to the kind of experiment: Proliferation assay, A2780. The class given is cell-based. The note with it: Homo sapiens, A2780, 96 h; 4 days, crystal violet; read-out: Inhibition of A2780 cell proliferation IC50. How it is done: Cultivated tumour cells (HeLa, human cervical tumour cells, ATCC CCL-2; NCI-H460, human non-small cell lung carcinoma cells, ATCC HTB-177; A2780, human ovarian carcinoma cells, ECACC #93112519; DU 145, hormone-independent human prostate carcinoma cells, ATCC HTB-81; HeLa-MaTu-ADR, multidrug-resistant human cervical carcinoma cells, EPO-GmbH Berlin; Caco-2, human colorectal carcinoma cells, ATCC HTB-37; B16F10, mouse melanoma cells, ATCC CRL-6475) were plated at a density of 5,000 cells/well (DU145, HeLa-MaTu-ADR), 3,000 cells/well (NCI-H460, HeLa), 2,500 cells/well (A2780), 1,500 cells/well (Caco-2), or 1,000 cells/well (B16F10) in a 96-well multititer plate in 200 μL of their respective growth medium supplemented 10% fetal calf serum. […] Cell proliferation was determined by staining the cells with crystal violet: the cells were fixed by adding 20 μl/measuring point of an 11% glutaric aldehyde solution for 15 minutes at room temperature. […] The extinction was determined by photometry at a wavelength of 595 nm. The change of cell number, in percent, was calculated by normalization of the measured values to the extinction values of the zero-point plate (=0%) and the extinction of the untreated (0 μm) cells (=100%). […]

For `COc1cc(F)ccc1-c1cc(Nc2cc(CS(C)(=O)=O)ccn2)ncn1` [Example 1, 6-(4-Fluoro-2-methoxyphenyl)-N-{4-[(methylsulfonyl)methyl]pyridin-2-yl}pyrimidin-4-amine], the IC50 against CDK2/CycE is 280 nM; in the assay with HeLa-MaTu-ADR cells it was 212 nM; in the assay on NCI-H460 cells, 317 nM; with DU145 cells it was 195 nM; in the assay with Caco-2 cells, 341 nM; in the assay on B16F10 cells, 289 nM. Besides, in the assay on A2780 cells, the IC50 came to 65 nM.
On to `COc1cc(F)ccc1-c1cc(Nc2cc(CS(C)(=O)=O)cc(C)n2)ncn1` [Example 2, 6-(4-Fluoro-2-methoxyphenyl)-N-{6-methyl-4-[(methylsulfonyl)methyl]pyridin-2-yl}pyrimidin-4-amine], for which the IC50 at CDK2/CycE was 90 nM; in the assay with HeLa-MaTu-ADR cells, 54 nM; in the assay with NCI-H460 cells it was 95 nM; in the assay with DU145 cells it was 75 nM; in the assay on Caco-2 cells it was 91 nM; in the assay on B16F10 cells, 101 nM.
As for `COc1cc(F)ccc1-c1cc(Nc2cc(CS(C)(=O)=O)cc(C(F)(F)F)n2)ncn1` [Example 3, 6-(4-Fluoro-2-methoxyphenyl)-N-{4-[(methylsulfonyl)methyl]-6-(trifluoromethyl)pyridin-2-yl}pyrimidin-4-amine], the IC50 against CDK2/CycE was 73 nM; with HeLa-MaTu-ADR cells it was 33 nM; with NCI-H460 cells it was 55 nM; with DU145 cells it was 34 nM; with Caco-2 cells, 52 nM; in the assay on B16F10 cells it was 34 nM. In addition, in the assay with A2780 cells, the IC50 worked out at 14 nM.
For the compound `COc1cc(F)ccc1-c1cc(Nc2cc(CS(C)(=O)=O)cc(F)n2)ncn1` [Example 4, 6-(4-Fluoro-2-methoxyphenyl)-N-{6-fluoro-4-[(methylsulfonyl)methyl]pyridin-2-yl}pyrimidin-4-amine], the IC50 at CDK2/CycE was 92 nM.
